The record followed here is PubChem BioAssay AID1361 (SRMLSC, 2008).

This assay can be described thus: mitochondrial fusion inhibitors, confirmation, cell-based, chemical genetic, wild-type and mutant (AID 1361). The note with it: Cell-based mitochondrial fusion phenotype, imaging.
Where [1] appears, read: mutant cells, measured here: mutant cell line IC50.

The structures appear in SMILES notation. The source made the active and inactive calls. How the calls were made is not given here.

Consider `CC1(C)CC(=O)c2c(O)cc(OCc3ccc([N+](=O)[O-])cc3)cc2O1`, for which the IC50 reads like this: (WT cells) > 25 µM (inactive); under setting [1], over 25 µM.

Consider `O=C(Nc1ccc2c(c1)OCO2)c1ccccc1SCC(=O)N1CCCC1`, for which the IC50 reads like this: (WT cells) > 25 µM (inactive); under setting [1], over 25 µM.

Take `O=C1C(Cl)=C(NC2CCCCC2)C(=O)N1Cc1ccccc1`: the IC50 by setting is: (WT cells) 19.1 µM; under setting [1], over 25 µM.

For the molecule `CCCCC(c1nnnn1CC1CCCO1)N1CCN(c2cc(Cl)ccc2C)CC1` (stereo not given), the IC50 is 21.6 µM (WT cells) and over 25 µM under setting [1].

With `Cc1ccc(-n2cccc2/C=C2\C(=N)N3N=C(C(C)C)SC3=NC2=O)cc1`, the IC50 is, setting by setting: (WT cells) 10.6 µM; under setting [1], over 25 µM.

On to `CC(=O)Oc1ccc(N(C(C)=O)S(=O)(=O)c2cccs2)cc1`, for which the IC50 was > 25 µM (inactive) (WT cells) and over 25 µM under setting [1].

Turning to `COc1cc(Nc2nc(-c3ccccc3)c3cc(C)ccc3n2)cc(OC)c1OC`, the half-inhibitory concentration (IC50) reads like this: (WT cells) 10.6 µM; under setting [1], over 25 µM.

As to `CN(C)c1ccc(S(=O)(=O)c2ccc(Cl)cc2)cc1`, the IC50 is > 25 µM (inactive) (WT cells) and over 25 µM under setting [1].

As for `O=c1cc2c(nn1Cc1ccc(Cl)cc1Cl)-c1ccccc1CC2`, the IC50 was 10.6 µM (WT cells) and 17.8 µM under setting [1].

For the molecule `CC1Cc2ccccc2N1C(=O)Cn1c(=O)cc(O)c2ccccc21` (stereo not given), the IC50 is > 25 µM (inactive) (WT cells) and over 25 µM under setting [1].

With `CCCCOC(=O)Nc1cccc(C(=O)OCC)c1`, the IC50 is > 25 µM (inactive) (WT cells) and over 25 µM under setting [1].

`COc1cc(CNCCO)cc(Br)c1OCc1ccccc1Cl`: the IC50 is > 25 µM (inactive) (WT cells) and 23.8 µM under setting [1].

For `O=C1NC(=O)C(CCc2ccncc2)(Cc2cccc(Cl)c2Cl)C(=O)N1c1ccc(Br)cc1` (stereo not given), the IC50 (WT cells) was 10.1 µM and the concentration for half-maximal inhibition (IC50) under setting [1] is over 25 µM.

In the case of `CC(C)C(c1nnnn1C(C)(C)C)N1CCC(Cc2ccccc2)CC1` (stereo not given), the IC50 (WT cells) is 12.1 µM and the IC50 under setting [1] is over 25 µM.

On to `O=c1[nH][nH]c(-c2ccccc2)c1C=Nc1ccccc1`, for which the IC50 is > 25 µM (inactive) (WT cells) and over 25 µM under setting [1].

In the case of `CC1=CC(C)(C)N(S(=O)(=O)c2ccc(C)cc2)c2cc(C)ccc21`, the 50% inhibitory concentration (IC50) is, setting by setting: (WT cells) 11.1 µM; under setting [1], over 25 µM.

For the molecule `CN1C(=S)SC(C)(C)C1(C)NO` (stereo not given), the IC50 is, setting by setting: (WT cells) > 25 µM (inactive); under setting [1], over 25 µM.

`CCOC(=O)C1=C(C)NC(SC(C)=O)=NC1c1ccc(OC(C)=O)c(OC)c1` (stereo not given): the IC50 is, setting by setting: (WT cells) > 25 µM (inactive); under setting [1], over 25 µM.

With `Cc1cc(NC(=S)N(Cc2ccc(Cl)cc2)Cc2ccc(C(=O)O)cc2)ccc1Cl`, the IC50 by setting is: (WT cells) 17.6 µM; under setting [1], over 25 µM.

Consider `COCCN(C(=S)Nc1ccc(C(C)C)cc1)C(C)c1cccs1` (stereo not given), for which the IC50 (WT cells) was > 25 µM (inactive) and the IC50 under setting [1] was over 25 µM.

`COc1ccccc1NC(=O)c1cccc(NC(=O)c2ccco2)c1`: the IC50 is > 25 µM (inactive) (WT cells) and over 25 µM under setting [1].

Regarding `C/C(CCN1CCc2nc(-c3ccccc3)c(-c3ccccc3)cc2C1)=N\OC[C@@H](C)[C@H](OCc1ccccc1)C(C)C`, the IC50 reads like this: (WT cells) > 25 µM (inactive); under setting [1], over 25 µM.

Consider `CN1C=CC=C/C1=C1\SC(=S)N(c2ccccc2)C1=O`, for which the IC50 reads like this: (WT cells) > 25 µM (inactive); under setting [1], over 25 µM.

On to `Cc1cc(C)cc(NC(=S)Nc2cccc3cnccc23)c1`, for which the IC50 is, setting by setting: (WT cells) > 25 µM (inactive); under setting [1], over 25 µM.

Take `C[C@@H](C[C@@H](O)[C@H](O)C(C)(C)O)[C@@H]1CC[C@]2(C)C3=CC[C@H]4C(C)(C)C(=O)CC[C@]4(C)[C@H]3CC[C@@]12C`: the IC50 by setting is: (WT cells) > 25 µM (inactive); under setting [1], over 25 µM.

Take `Cc1ccc(/C=N/n2cnc3sc(-c4ccccc4)cc3c2=O)o1`: the IC50 (WT cells) was > 25 µM (inactive) and the IC50 under setting [1] is over 25 µM.

For `CC(C)Cc1nc(N2CCN(C(=O)c3ccccc3)CC2)c(C#N)c2c1CCC2`, the IC50 reads like this: (WT cells) 16.3 µM; under setting [1], over 25 µM.

With `Nc1ccc2nn(-c3ccccc3)nc2c1`, the IC50 (WT cells) is > 25 µM (inactive) and the IC50 under setting [1] was over 25 µM.

With `O=C(CCn1nnc2ccccc21)Nc1nnc(Cc2ccccc2)s1`, the IC50 (WT cells) is > 25 µM (inactive) and the IC50 under setting [1] is over 25 µM.

With `N#Cc1ccc(NC(=O)Nc2ccc(Cl)cc2)cc1`, the IC50 (WT cells) is 9.83 µM and the IC50 under setting [1] amounted to 13.6 µM.

Consider `Cc1cc(Cl)ccc1OC(C)C(=O)Nc1ccccc1N1CCOCC1` (stereo not given), for which the IC50 by setting is: (WT cells) 21.1 µM; under setting [1], over 25 µM.

`O=C(OC(C(=O)Nc1cccc(C(F)(F)F)c1)c1ccccc1)C1CCCCC1` (stereo not given): the IC50 was 9.59 µM (WT cells) and over 25 µM under setting [1].

Take `Cc1ccc(-c2nn(-c3ccccc3)cc2CSC(=N)N)cc1`: the IC50 was > 25 µM (inactive) (WT cells) and over 25 µM under setting [1].

As to `Cc1cccc(C(=O)NC(C(=O)Nc2nc(-c3ccccn3)cs2)C(C)C)c1` (stereo not given), the half-maximal inhibitory concentration (IC50) was 20.8 µM (WT cells) and over 25 µM under setting [1].

Take `CCOc1ccc(OCC)c(S(=O)(=O)NCCOC23CC4CC(CC(C4)C2)C3)c1`: the IC50 (WT cells) was > 25 µM (inactive) and the IC50 under setting [1] is over 25 µM.
